Reference: patent US5846934A, “Pure somatostatin antagonist and methods of use thereof” (American Cyanamid Company, priority 1997, dated 1998)
Positions of bridges follow the written chain, without caps; N, C: chain ends. Non-standard residues stand in square brackets, D forms with d. Residues, ends and D or L forms follow the SMILES beside them. NMePhe(4-NO2) = CN[C@@H](Cc1ccc([N+](=O)[O-])cc1)C(=O)O; Phe(4-NO2) = N[C@@H](Cc1ccc([N+](=O)[O-])cc1)C(=O)O; 2Nal = N[C@@H](Cc1ccc2ccccc2c1)C(=O)O; d2Nal = N[C@H](Cc1ccc2ccccc2c1)C(=O)O; Orn = NCCC[C@H](N)C(=O)O; Abu = CC[C@H](N)C(=O)O

Key:
[1] = target: T1, rat somatostatin receptor subtype 2 (SSTR2) (Rattus norvegicus, UniProt P30680); assay: Yeast assay, somatostatin antagonist activity (zone of no growth in presence of S-14); assay type: cell-based; design: key: 1 is minimum antagonist activity; 5 is maximum antagonist activity; --: When no activity is observed, the result is indicated by a dash; settings: rating on a scale of 1-5 from zone of no growth; 5 μL of 1 mg/mL S-14 added to each plate
T1 construct: expressed in transfected cells; host or cells: Saccharomyces cerevisiae LY364 bearing pJH2 (SSTR2) and pLP82 (G protein)
T1 sequence (P30680 whole entry): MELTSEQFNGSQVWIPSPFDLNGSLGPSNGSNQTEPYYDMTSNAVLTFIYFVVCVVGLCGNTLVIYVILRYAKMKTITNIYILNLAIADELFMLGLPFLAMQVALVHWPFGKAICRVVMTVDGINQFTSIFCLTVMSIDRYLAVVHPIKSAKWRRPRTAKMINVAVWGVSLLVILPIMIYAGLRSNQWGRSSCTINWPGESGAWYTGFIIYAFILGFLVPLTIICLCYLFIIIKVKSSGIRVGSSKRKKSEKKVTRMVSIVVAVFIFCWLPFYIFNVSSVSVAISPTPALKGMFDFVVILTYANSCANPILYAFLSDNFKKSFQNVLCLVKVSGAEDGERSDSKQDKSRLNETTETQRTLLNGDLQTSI
Experimental: (§1) In this evaluation, yeast cells which have been specifically modified to functionally express rat somatostatin receptor subtype 2 (SSTR2) on their cell surfaces are used. S. Cerevisiae LY364 cells are plated in a standard synthetic agar medium which lacks histidine. In the absence of a somatostatin receptor agonist, the auxotrophic (his3) cells are unable to grow. In the presence of somatostatin, or a somatostatin agonist, the expression of an enzyme (His3p: imidazole-glycerol phosphate dehydratase) which is essential for histidine biosynthesis is induced. The cells become competent to produce histidine, resulting in a zone of growing cells around the applied test compound. The zone is measured and the test compound is given an agonist rating on a scale of 1-5 wherein 1 is minimum agonist activity and 5 is maximum agonist activity.
To evaluate the somatostatin antagonist activity of a test compound, the above procedure is followed except on day 3, 5 μL of 1 mg/mL of somatostatin, S-14, is added to each plate, before applying the test compound. If the test compound is an antagonist of somatostatin, then a zone of no growth will appear within the cell growth zone. This zone of no growth is measured and the test compound is given an antagonist rating on a scale of 1-5 wherein 1 is minimum antagonist activity and 5 is maximum antagonist activity.
The results are shown in Table I. When no activity is observed, the result is indicated by a dash.
On day 3, add 5 μL 1 mg/mL S-14 to each plate.
(§2) Day 7. Growth in response to somatostatin should be readily observable. Rate extent of growth or inhibition of growth according to rating scale described hereinabove.

[2] = target: T1, rat somatostatin receptor subtype 2 (SSTR2); assay: Yeast assay, somatostatin agonist activity (zone of growth of modified yeast cells); assay type: cell-based; design: key: 1 is minimum agonist activity; 5 is maximum agonist activity; --: When no activity is observed, the result is indicated by a dash; settings: rating on a scale of 1-5 from zone of growth; S. cerevisiae LY364 expressing rat SSTR2
Experimental: as §1
1) Inoculate 2 mL SCD-ura-trp liquid medium in Falcon 2051 tube with a single colony taken from a plate containing LY364 (MATa ura3-52 leu2 his3 trp1 lys2 ade2 far1:: LYS2 fus1:: FUS1-HIS3 gpa1::hisG sst2::.ADE2 bearing the SSTR2 expression plasmid, pJH2, and the G protein expression plasmid, pLP82) cells.
3) Add 1 mL of LY364 culture to 1 liter of agar medium.
8) Incubate plates at 30° C.
Day 5. Begin checking plates for growth around applied compounds.
as §2

SSTR2 = SSTR2 (Rattus norvegicus, UniProt P30680); assay: Competitive binding, displacement of [125I]Tyr11 S-14; design: expressed in transfected cells; membrane protein; settings: for Ki: calculated by method of Cheng and Prusoff, read-out: SSTR2 Binding Affinity Ki; for IC50: displacement of [125I]Tyr11 S-14, 250 pM, room temperature, 2 hours, read-out: SSTR2 Binding Affinity IC50
Chain of SSTR2 (P30680 whole entry): as above
Experimental: In this evaluation the concentration of test compound required to displace 50% of somatostatin, SRIF, from the SRIF receptor subtypes expressed in mammalian cells is measured, i.e., the concentration required to inhibit 50% of [^125 I] Tyr^11 S-14 (Amersham) (IC50) from binding to the SRIF receptor subtypes.
Radiolabeled SRIF is mixed with pituitary cells, the test compound is added, the mixture is incubated and the radioactivity is measured as compared to control. Reduced radioactivity indicates successful competitive binding of the test compound to the pituitary cell receptor. The concentration of the test compound in nanomolar units required to displace 50% of SRIF from the pituitary cell receptor is calculated and reported in Table II as the IC50 value. Also calculated is the inhibitory constant, Ki.
Tyr^11 S-14 (150,000 cpm at 2000 Ci/mmole, 250 pM final concentration). The binding reaction is initiated by adding 2-60 μg of membrane protein in a 170 μL volume. Final reaction volume is 200 μl/well. All incubations are carried out at room temperature for 2 hours. Free radioligand is separated from bound ligand by rapid filtration through a glass fiber filter (IH-201-HA) using an Inotech cell harvester. The filter is then washed several times with cold (4° C.) binding buffer lacking BSA and protease inhibitors prior to counting in an LKB gamma master counter (78% efficiency). Whatman GFC filters presoaked in 0.3% polyethylenimine (to decrease background) are used.
The IC50 values and Ki values are calculated using the well-known methods described by Y. Cheng and W. H. Prusoff, Biochem. Pharmacol. 22, 3099-3108 (1973), incorporated herein by reference thereto.

CC(C)[C@@H]1NC(=O)[C@H](CCCCN)NC(=O)[C@@H](Cc2c[nH]c3ccccc23)NC(=O)[C@H](Cc2ccc(O)cc2)NC(=O)[C@H](NC(=O)[C@@H](N)Cc2ccc([N+](=O)[O-])cc2)CSSC[C@@H](C(=O)N[C@@H](Cc2ccc3ccccc3c2)C(N)=O)NC1=O [4-NO2 Phe Tyr Lys Val Nal(2)] (H-[Phe(4-NO2)][dC]Y[dW]KVC[2Nal]-NH2; disulfide 2-7 (inferred); N-terminus and C-terminus assumed) was tested, and the “Yeast Assay Antagonist” value [1] was 2, the “Yeast Assay Agonist” value [2] was “--” and the Ki (SSTR2) was 3.1 nM. The IC50 (SSTR2) was 7 nM.

C[C@@H](O)[C@@H]1NC(=O)[C@H](CCCCN)NC(=O)[C@@H](Cc2c[nH]c3ccccc23)NC(=O)[C@H](Cc2ccc(O)cc2)NC(=O)[C@H](NC(=O)[C@@H](N)Cc2ccc([N+](=O)[O-])cc2)CSSC[C@@H](C(=O)N[C@H](Cc2ccc(O)cc2)C(N)=O)NC1=O [4-NO2 Phe Tyr Lys Thr D-Tyr] was tested, and the “Yeast Assay Antagonist” value [1] was 4, the “Yeast Assay Agonist” value [2] was “--” and the Ki (SSTR2) was 1.5 nM. The IC50 (SSTR2) was 3 nM.

C[C@@H](O)[C@@H]1NC(=O)[C@H](CCCCN)NC(=O)[C@@H](Cc2c[nH]c3ccccc23)NC(=O)[C@H](Cc2ccc(O)cc2)NC(=O)[C@H](NC(=O)[C@@H](N)Cc2ccc([N+](=O)[O-])cc2)CSSC[C@@H](C(=O)N[C@@H](Cc2ccc(O)cc2)C(N)=O)NC1=O [4-NO2 Phe Tyr Lys Thr Tyr] was tested, and the “Yeast Assay Antagonist” value [1] was 5, the “Yeast Assay Agonist” value [2] was “--” and the Ki (SSTR2) was 1.33 nM. For the same molecule, the IC50 (SSTR2) was 3 nM.

In the case of CC(=O)N[C@@H](Cc1ccc2ccccc2c1)C(=O)N[C@@H]1CSSC[C@@H](C(=O)N[C@@H](Cc2ccc(O)cc2)C(N)=O)NC(=O)[C@H]([C@@H](C)O)NC(=O)[C@H](CCCCN)NC(=O)[C@@H](Cc2c[nH]c3ccccc23)NC(=O)[C@H](Cc2ccc(O)cc2)NC1=O [Ac-Nal(2) Tyr Lys Thr Tyr] (Ac-[2Nal][dC]Y[dW]KTCY-NH2; disulfide 2-7 (inferred); N-terminus and C-terminus assumed), the “Yeast Assay Antagonist” value [1] is reported as 1, the “Yeast Assay Agonist” value [2] is reported as “--” and the Ki (SSTR2) is reported as 0.48 nM. It also gave an IC50 (SSTR2) of 1 nM.

In the case of C[C@@H](O)[C@@H]1NC(=O)[C@H](CCCNC(=N)N)NC(=O)[C@@H](Cc2c[nH]c3ccccc23)NC(=O)[C@H](Cc2ccc(O)cc2)NC(=O)[C@H](NC(=O)[C@@H](N)Cc2ccc([N+](=O)[O-])cc2)CSSC[C@@H](C(=O)N[C@@H](Cc2ccc(O)cc2)C(N)=O)NC1=O [4-NO2 Phe Tyr Arg Thr Tyr] (H-[Phe(4-NO2)][dC]Y[dW]RTCY-NH2; disulfide 2-7 (inferred); N-terminus and C-terminus assumed), the “Yeast Assay Antagonist” value [1] is reported as 2, the “Yeast Assay Agonist” value [2] is reported as “--” and the Ki (SSTR2) is reported as 25 nM. It also gave an IC50 (SSTR2) of 57 nM.

CC(C)[C@@H]1NC(=O)[C@H](CCCCN)NC(=O)[C@@H](Cc2c[nH]c3ccccc23)NC(=O)[C@H](Cc2ccc(O)cc2)NC(=O)[C@H](NC(=O)[C@@H](N)Cc2ccc3ccccc3c2)CSSC[C@@H](C(=O)N[C@@H](Cc2ccc(O)cc2)C(N)=O)NC1=O [L-Nal(2) Tyr Lys Val Tyr] (H-[2Nal][dC]Y[dW]KVCY-NH2; disulfide 2-7) was tested, and the “Yeast Assay Antagonist” value [1] was 3, the “Yeast Assay Agonist” value [2] was “--” and the Ki (SSTR2) was 2.22 nM. For the same molecule, the IC50 (SSTR2) was 5 nM.

In the case of CN[C@@H](Cc1ccc([N+](=O)[O-])cc1)C(=O)N[C@@H]1CSSC[C@@H](C(=O)N[C@@H](Cc2ccc(O)cc2)C(N)=O)NC(=O)[C@H](C(C)C)NC(=O)[C@H](CCCCN)NC(=O)[C@@H](Cc2c[nH]c3ccccc23)NC(=O)[C@H](Cc2ccc(O)cc2)NC1=O [NMe-4-NO2 Phe Tyr Lys Val Tyr] (H-[NMePhe(4-NO2)][dC]Y[dW]KVCY-NH2; disulfide 2-7 (inferred); N-terminus and C-terminus assumed), the “Yeast Assay Antagonist” value [1] is reported as 5, the “Yeast Assay Agonist” value [2] is reported as “--” and the Ki (SSTR2) is reported as 2.67 nM. For the same molecule, the IC50 (SSTR2) was 6 nM.

In the case of CC[C@@H]1NC(=O)[C@H](CCCCN)NC(=O)[C@@H](Cc2c[nH]c3ccccc23)NC(=O)[C@H](Cc2ccc(O)cc2)NC(=O)[C@H](NC(=O)[C@@H](N)Cc2ccc([N+](=O)[O-])cc2)CSSC[C@@H](C(=O)N[C@@H](Cc2ccc(O)cc2)C(N)=O)NC1=O [4-NO2 Phe Tyr Lys Abu Tyr] (H-[Phe(4-NO2)][dC]Y[dW]K[Abu]CY-NH2; disulfide 2-7), the “Yeast Assay Antagonist” value [1] is reported as 3, the “Yeast Assay Agonist” value [2] is reported as “--” and the Ki (SSTR2) is reported as 1.78 nM. It also gave an IC50 (SSTR2) of 4 nM.

CC(=O)N[C@@H](Cc1ccc(I)cc1)C(=O)N[C@@H]1CSSC[C@@H](C(=O)N[C@H](Cc2ccc(O)cc2)C(N)=O)NC(=O)[C@H]([C@@H](C)O)NC(=O)[C@H](CCCCN)NC(=O)[C@@H](Cc2c[nH]c3ccccc23)NC(=O)[C@H](Cc2ccc(O)cc2)NC1=O [Ac-4-IPhe Tyr Lys Thr D-Tyr] was tested, and the “Yeast Assay Antagonist” value [1] was 4 and the “Yeast Assay Agonist” value [2] was “--”.

With C[C@@H](O)[C@@H]1NC(=O)[C@H](CCCCN)NC(=O)[C@@H](Cc2c[nH]c3ccccc23)NC(=O)[C@H](Cc2ccc(O)cc2)NC(=O)[C@H](NC(=O)[C@@H](N)Cc2ccc3ccccc3c2)CSSC[C@@H](C(=O)N[C@@H](Cc2ccc(O)cc2)C(N)=O)NC1=O [L-Nal(2) Tyr Lys Thr Tyr] (H-[2Nal][dC]Y[dW]KTCY-NH2; disulfide 2-7 (inferred); N-terminus and C-terminus assumed) the “Yeast Assay Antagonist” value [1] was 1, the “Yeast Assay Agonist” value [2] was “--” and the Ki (SSTR2) was 0.4 nM. The IC50 (SSTR2) was 0.9 nM.

CC(C)[C@@H]1NC(=O)[C@H](CCCCN)NC(=O)[C@@H](Cc2c[nH]c3ccccc23)NC(=O)[C@H](Cc2ccc(O)cc2)NC(=O)[C@H](NC(=O)[C@H](N)Cc2ccc3ccccc3c2)CSSC[C@@H](C(=O)N[C@@H](Cc2ccc(O)cc2)C(N)=O)NC1=O [D-Nal(2) Tyr Lys Val Tyr] (H-[d2Nal][dC]Y[dW]KVCY-NH2; disulfide 2-7) was tested, and the “Yeast Assay Antagonist” value [1] was 2, the “Yeast Assay Agonist” value [2] was “--” and the Ki (SSTR2) was 0.89 nM. The IC50 (SSTR2) was 2 nM.

In the case of CC(C)[C@@H]1NC(=O)[C@H](CCCN)NC(=O)[C@@H](Cc2c[nH]c3ccccc23)NC(=O)[C@H](Cc2ccc(O)cc2)NC(=O)[C@H](NC(=O)[C@@H](N)Cc2ccc([N+](=O)[O-])cc2)CSSC[C@@H](C(=O)N[C@@H](Cc2ccc(O)cc2)C(N)=O)NC1=O [4-NO2 Phe Tyr Orn Val Tyr] (H-[Phe(4-NO2)][dC]Y[dW][Orn]VCY-NH2; disulfide 2-7 (inferred); N-terminus and C-terminus assumed), the “Yeast Assay Antagonist” value [1] is reported as 1 and the “Yeast Assay Agonist” value [2] is reported as “--”.

For CC(C)[C@@H]1NC(=O)[C@H](CCCCN)NC(=O)[C@@H](Cc2c[nH]c3ccccc23)NC(=O)[C@H](Cc2ccc(O)cc2)NC(=O)[C@H](NC(=O)[C@@H](N)Cc2ccc([N+](=O)[O-])cc2)CSSC[C@@H](C(=O)N[C@@H](Cc2ccc(O)cc2)C(N)=O)NC1=O [4-NO2 Phe Tyr Lys Val Tyr] (H-[Phe(4-NO2)][dC]Y[dW]KVCY-NH2; disulfide 2-7 (inferred); N-terminus and C-terminus assumed), the “Yeast Assay Antagonist” value [1] was 5, the “Yeast Assay Agonist” value [2] was “--” and the Ki (SSTR2) was 12.9 nM. It also gave an IC50 (SSTR2) of 29 nM.
